Structures are written as SMILES. Starred links: 1 amine or outer side, 2 acyl side, 3 side chain; linkers in the order of their positions; H or OH if unused. Positions of bridges follow the written chain, without caps; N, C: chain ends. Non-standard residues stand in square brackets, D forms with d. Residues, ends and D or L forms follow the SMILES beside them. *: point of attachment. hPhe(3-Cl-4-CF3) = N[C@@H](CCc1ccc(C(F)(F)F)c(Cl)c1)C(=O)O; hPhe(4-CF3) = N[C@@H](CCc1ccc(C(F)(F)F)cc1)C(=O)O; NMePhe(4-CN) = CN[C@@H](Cc1ccc(C#N)cc1)C(=O)O; Phe(2-F,5-Br) = N[C@@H](Cc1cc(Br)ccc1F)C(=O)O; Thiomorpholino(1,1-dioxo) = O=S1(=O)CCN(*)CC1; NMePhe(4-Cl) = CN[C@@H](Cc1ccc(Cl)cc1)C(=O)O; NMePhe(4-Me) = CN[C@@H](Cc1ccc(C)cc1)C(=O)O; X18 = Cc1ccc(Br)cc1C[C@H](N[*:1])C(=O)[*:2]; NMedβ3hAla = C[C@H](CC(=O)[*:2])N(C)[*:1]; NMeGly(cPent) = CN[C@H](C(=O)O)C1CCCC1; Phe(3-I) = N[C@@H](Cc1cccc(I)c1)C(=O)O; Phe(2-F) = N[C@@H](Cc1ccccc1F)C(=O)O; NMeY = CN[C@@H](Cc1ccc(O)cc1)C(=O)O; NMeCha = CN[C@@H](CC1CCCCC1)C(=O)O; NMeF = CN[C@@H](Cc1ccccc1)C(=O)O; NMeD = CN[C@@H](CC(=O)O)C(=O)O; NMeL = CN[C@@H](CC(C)C)C(=O)O; NMeV = CN[C@H](C(=O)O)C(C)C; d(β3hA) = C[C@@H](N)CC(=O)O; NMeAbu = CC[C@H](NC)C(=O)O; NMeS = CN[C@@H](CO)C(=O)O; Pip = O=C(O)[C@@H]1CCCCN1; NMeA = CN[C@@H](C)C(=O)O; NMeAib = CNC(C)(C)C(=O)O; Nle = CCCC[C@H](N)C(=O)O; Piperidide = C1CCN(*)CC1; Pyrrolidide = C1CCN(*)C1; dNMeA = CN[C@H](C)C(=O)O; Ac5c = NC1(C(=O)O)CCCC1; Aze = O=C(O)[C@@H]1CCN1; Aib = CC(C)(N)C(=O)O; Isopentyl = CC(C)CC*; Sar = CNCC(=O)O

The IC50 is the concentration needed to halve the response being measured.

T1 sequence (P01116 1-188 isoform P01116-2 G12D): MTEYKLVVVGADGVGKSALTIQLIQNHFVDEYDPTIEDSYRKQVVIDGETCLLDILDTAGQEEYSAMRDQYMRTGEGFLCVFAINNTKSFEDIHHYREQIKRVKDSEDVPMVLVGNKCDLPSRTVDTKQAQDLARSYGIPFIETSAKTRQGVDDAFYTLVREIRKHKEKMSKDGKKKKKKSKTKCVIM

This test concerns the target T1, Kras and SOS1 (biotin-tagged human Kras loaded with GDP, His-tagged human SOS1) (Homo sapiens, UniProt P01116, G12D).
T1 construct: made in house; host or cells: E. coli (stated for Kras only)
The test can be described thus: Protein-protein interaction inhibition between Kras and SOS1 (KrasGl2D-SOS PPI) using AlphaScreen. In kind it is binding. The note with it: AlphaScreen; biotin-tagged human Kras loaded with GDP, His-tagged human SOS1; read-out: KRAS G12D-SOS PPI IC50. The gist of the method: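 AlphaScreen format: Ni donor beads capture His-SOS1, streptavidin acceptor beads capture biotinylated Kras (E. coli-expressed, GDP-loaded post-purification). Excite 680 nm, read 520-620 nm.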
Consider `CC[C@H](C)[C@@H]1NC(=O)[C@@H]2CCCCN2C(=O)C[C@@H](C)NC(=O)[C@H](CC(C)C)N(C)C(=O)C(C)(C)NC(=O)[C@H](CC(C)C)N(C)C(=O)[C@H](CCc2ccc(C(F)(F)F)cc2)NC(=O)CN(C)C(=O)[C@H](Cc2ccc(Cl)cc2)N(C)C(=O)CN(C)C(=O)CN(C)C1=O` [Compound 286] (cyclo([Aib][NMeL][d(β3hA)][Pip]I[Sar][Sar][NMePhe(4-Cl)][Sar][hPhe(4-CF3)][NMeL])), for which the IC50 came out at 96 nM.

For the compound `CC[C@H](C)[C@@H]1NC(=O)[C@H](C)N(C)C(=O)C[C@@H](C(=O)N2CCCC2)NC(=O)[C@H](CC(C)C)N(C)C(=O)[C@H](COCCC(C)C)N(C)C(=O)[C@H](CC(C)C)NC(=O)[C@H](CCc2ccc(C(F)(F)F)cc2)NC(=O)CN(C)C(=O)[C@H](Cc2ccc(Cl)cc2)N(C)C(=O)CN(C)C(=O)CN(C)C1=O` [Compound 675] ([NMeA]I[Sar][Sar][NMePhe(4-Cl)][Sar][hPhe(4-CF3)]L[NMeS](Isopentyl)[NMeL]D-Pyrrolidide; lactam N-11), the IC50 was 59 nM.

Consider `CC[C@H](C)[C@@H]1NC(=O)[C@H](CC(C)C)N(C)C(=O)C[C@@H](C)NC(=O)[C@H](C(C)C)N(C)C(=O)C2(CCCC2)NC(=O)[C@@H]2CCCN2C(=O)[C@H](CCc2ccc(C(F)(F)F)c(Cl)c2)NC(=O)CN(C)C(=O)[C@H](Cc2ccc(C#N)cc2)N(C)C(=O)CN(C)C(=O)CN(C)C1=O` [Compound 564] (cyclo([Ac5c][NMeV][d(β3hA)][NMeL]I[Sar][Sar][NMePhe(4-CN)][Sar][hPhe(3-Cl-4-CF3)]P)), for which the IC50 came out at 9.6 nM.

Take `CC[C@H](C)[C@@H]1NC(=O)[C@H](CC(C)C)N(C)C(=O)C[C@@H](C(=O)N2CCS(=O)(=O)CC2)NC(=O)[C@H](C(C)C)N(C)C(=O)C2(CCCC2)NC(=O)[C@@H]2CCCN2C(=O)[C@H](CCc2ccc(C(F)(F)F)c(Cl)c2)NC(=O)CN(C)C(=O)[C@H](CC2CCCCC2)N(C)C(=O)[C@@H]2CCN2C(=O)[C@H](C)N(C)C1=O` [Compound 1349] ([NMeL]I[NMeA][Aze][NMeCha][Sar][hPhe(3-Cl-4-CF3)]P[Ac5c][NMeV]D-{Thiomorpholino(1,1-dioxo)}; lactam N-11): the IC50 is 150 nM.

For the compound `CC[C@H](C)[C@@H]1NC(=O)[C@H](C)N(C)C(=O)C[C@@H](C)N(C)C(=O)[C@H](CC(C)C)NC(=O)C(C)(C)N(C)C(=O)[C@H](CC(C)C)NC(=O)[C@H](CCc2ccc(C(F)(F)F)c(Cl)c2)NC(=O)[C@@H](C)N(C)C(=O)[C@H](CC2CCCCC2)N(C)C(=O)[C@@H]2CCN2C(=O)CN(C)C1=O` [Compound 1378] (cyclo([Aze][NMeCha][dNMeA][hPhe(3-Cl-4-CF3)]L[NMeAib]L[NMedβ3hAla][NMeA]I[Sar])), the IC50 turned out to be 380 nM.

Regarding `CC[C@H](C)[C@@H]1NC(=O)[C@H](CC(C)C)N(C)C(=O)C[C@@H](C(=O)N2CCCCC2)N(C)C(=O)[C@H](CC(C)C)NC(=O)C(C)(C)N(C)C(=O)[C@H](Cc2ccccc2F)NC(=O)[C@H](Cc2cccc(I)c2)NC(=O)CN(C)C(=O)[C@H](Cc2ccc(C)cc2)N(C)C(=O)[C@@H]2CCN2C(=O)CN(C)C1=O` [Compound 638] ([NMeL]I[Sar][Aze][NMePhe(4-Me)][Sar][Phe(3-I)][Phe(2-F)][NMeAib]L[NMeD]-Piperidide; lactam N-11), the IC50 came to 45 nM.

Regarding `CC[C@H](C)[C@@H]1NC(=O)[C@H](C)N(C)C(=O)C[C@@H](C)NC(=O)[C@H](C2CCCC2)N(C)C(=O)C2(CCCC2)NC(=O)[C@@H]2CCCN2C(=O)[C@H](CCc2ccc(C(F)(F)F)c(Cl)c2)NC(=O)[C@@H](C)N(C)C(=O)[C@H](Cc2ccccc2)N(C)C(=O)[C@@H]2CCN2C(=O)[C@H](C)N(C)C1=O` [Compound 671] (cyclo([Ac5c][NMeGly(cPent)][d(β3hA)][NMeA]I[NMeA][Aze][NMeF][dNMeA][hPhe(3-Cl-4-CF3)]P)), the IC50 was 52 nM.

For the compound `CCCC[C@@H]1NC(=O)[C@H](Cc2cc(Br)ccc2F)NC(=O)CN(C)C(=O)[C@H](Cc2ccc(OC)cc2)N(C)C(=O)[C@@H]2CCN2C(=O)[C@H](C)N(C)C(=O)[C@H]([C@@H](C)CC)NC(=O)[C@H](CC)N(C)C(=O)C[C@@H](C(=O)N2CCCCC2)N(C)C(=O)[C@H](CC(C)C)NC(=O)C(C)(C)N(C)C1=O` [Compound 1177] ([NMeAbu]I[NMeA][Aze][NMeY](Me)[Sar][Phe(2-F,5-Br)][Nle][NMeAib]L[NMeD]-Piperidide; lactam N-11), the IC50 was found to be 12 nM.

For `CCCC[C@@H]1NC(=O)[C@H](Cc2cc(Br)ccc2C)NC(=O)CN(C)C(=O)[C@H](Cc2ccc(OC)cc2)N(C)C(=O)[C@@H]2CCN2C(=O)[C@H](C)N(C)C(=O)[C@H]([C@@H](C)CC)NC(=O)[C@H](CC)N(C)C(=O)C[C@@H](C(=O)N2CCCCC2)N(C)C(=O)[C@H](CC(C)C)NC(=O)C(C)(C)N(C)C1=O` [Compound 1195] ([NMeAbu]I[NMeA][Aze][NMeY](Me)[Sar][X18][Nle][NMeAib]L[NMeD]-Piperidide; lactam N-11), the IC50 amounted to 38 nM.

For the origin of these results see US12371454B2, “Cyclic peptide compound having Kras inhibitory action” (priority 2019, dated 2025).
